How the values were obtained:
Aβ42 = target: T1, Aβ42 (Homo sapiens, UniProt P05067); assay: CD spectroscopy of Aβ42 aggregated with the tested molecules; conditions: 5-fold molar excess of compound
T1 construct: purchased rPeptide (USA)
Method: (§1) The blank was subtracted from the acquired CD spectra. For the CD study in the presence of the tryptophan-galacosylamine molecules, the spectra of hybrid molecules were also recorded separately and subtracted from the respective sample spectra. The normalized data were plotted using Origin pro 2015 software.

[1] = target: T2, pre-formed fibrils of hIAPP (Homo sapiens, UniProt P10997); assay: CD spectroscopy of pre-formed hIAPP fibrils with the tested molecules; conditions: hIAPP : molecule (1:5)
T2 construct: hIAPP is a 37-amino acid neuroendocrine peptide hormone; purchased Peptide 2.0 (USA)
T2 sequence (P10997 34-70 limits assumed): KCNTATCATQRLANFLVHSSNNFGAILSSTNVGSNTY
Method: For efficient treatment of proteinopathies it may be advantageous to disassemble amyloid aggregates/fibrils which are usually already present at the time of diagnosis[75]–[77]. […] Then, various doses of the hybrid molecules were added to the pre-formed fibrils and the mixtures were incubated for additional 10 h. The process of disaggregation was monitored by ThT-binding assay, CD spectroscopy, TEM and Congo red staining (Fig. 5).
as §1

T1 sequence (P05067 672-713 limits assumed): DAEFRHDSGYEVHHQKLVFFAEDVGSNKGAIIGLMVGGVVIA

SMILES: NC(Cc1c[nH]c2ccccc12)C(=O)NC(Cc1c[nH]c2ccccc12)C(=O)O (centres unmarked) [WW]
- effect on Aβ42 secondary structure (CD), in words (Aβ42): No significant variation
- Normalized CD spectra ([1]; wavelength 190.00): -1159830.00
- Normalized CD spectra ([1]; wavelength 190.50): -799592.59
- Normalized CD spectra ([1]; wavelength 191.00): -466296.57
- Normalized CD spectra ([1]; wavelength 191.50): -159943.13
- Normalized CD spectra ([1]; wavelength 192.00): 119467.75
- Normalized CD spectra ([1]; wavelength 192.50): 371936.05
- Normalized CD spectra ([1]; wavelength 193.00): 597461.77
- Normalized CD spectra ([1]; wavelength 193.50): 796044.93
- Normalized CD spectra ([1]; wavelength 194.00): 967685.51
- Normalized CD spectra ([1]; wavelength 194.50): 1212380.23
- Normalized CD spectra ([1]; wavelength 195.00): 1290140.24
- Normalized CD spectra ([1]; wavelength 195.50): 1323180.24
- Normalized CD spectra ([1]; wavelength 196.00): 1393960.26
- Normalized CD spectra ([1]; wavelength 196.50): 1424490.23
- Normalized CD spectra ([1]; wavelength 197.00): 1413320.40
- Normalized CD spectra ([1]; wavelength 197.50): 1387150.18
- Normalized CD spectra ([1]; wavelength 198.00): 1299100.11
- Normalized CD spectra ([1]; wavelength 198.50): 1256630.40
- Normalized CD spectra ([1]; wavelength 199.00): 1187490.08
- Normalized CD spectra ([1]; wavelength 199.50): 1142090.27
- Normalized CD spectra ([1]; wavelength 200.00): 1101290.79
- Normalized CD spectra ([1]; wavelength 200.50): 1045740.12
- Normalized CD spectra ([1]; wavelength 201.00): 960554.59
- Normalized CD spectra ([1]; wavelength 201.50): 884170.56
- Normalized CD spectra ([1]; wavelength 202.00): 793224.29
- Normalized CD spectra ([1]; wavelength 202.50): 710397.29
- Normalized CD spectra ([1]; wavelength 203.00): 623023.93
- Normalized CD spectra ([1]; wavelength 203.50): 548091.19
- Normalized CD spectra ([1]; wavelength 204.00): 460178.98
- Normalized CD spectra ([1]; wavelength 204.50): 362812.96
- Normalized CD spectra ([1]; wavelength 205.00): 267913.28
- Normalized CD spectra ([1]; wavelength 205.50): 183033.71
- Normalized CD spectra ([1]; wavelength 206.00): 99125.43
- Normalized CD spectra ([1]; wavelength 206.50): 21202.95
- Normalized CD spectra ([1]; wavelength 207.00): -58441.14
- Normalized CD spectra ([1]; wavelength 207.50): -134432.91
- Normalized CD spectra ([1]; wavelength 208.00): -202839.97
- Normalized CD spectra ([1]; wavelength 208.50): -260187.32
- Normalized CD spectra ([1]; wavelength 209.00): -323573.72
- Normalized CD spectra ([1]; wavelength 209.50): -382447.61
- Normalized CD spectra ([1]; wavelength 210.00): -437399.79
- Normalized CD spectra ([1]; wavelength 210.50): -489520.86
- Normalized CD spectra ([1]; wavelength 211.00): -539599.27
- Normalized CD spectra ([1]; wavelength 211.50): -576249.85
- Normalized CD spectra ([1]; wavelength 212.00): -613623.93
- Normalized CD spectra ([1]; wavelength 212.50): -639995.46
- Normalized CD spectra ([1]; wavelength 213.00): -663323.35
- Normalized CD spectra ([1]; wavelength 232.00): -332238.92
- Normalized CD spectra ([1]; wavelength 232.50): -324045.26
- Normalized CD spectra ([1]; wavelength 233.00): -310464.00
- Normalized CD spectra ([1]; wavelength 233.50): -306656.69
- Normalized CD spectra ([1]; wavelength 234.00): -298160.53
- Normalized CD spectra ([1]; wavelength 234.50): -288025.21
- Normalized CD spectra ([1]; wavelength 235.00): -277617.45
- Normalized CD spectra ([1]; wavelength 235.50): -265647.30
- Normalized CD spectra ([1]; wavelength 236.00): -250898.81
- Normalized CD spectra ([1]; wavelength 236.50): -242222.13
- Normalized CD spectra ([1]; wavelength 237.00): -231613.39
- Normalized CD spectra ([1]; wavelength 237.50): -223355.72
- Normalized CD spectra ([1]; wavelength 238.00): -218172.86
- Normalized CD spectra ([1]; wavelength 238.50): -206535.49
- Normalized CD spectra ([1]; wavelength 239.00): -191737.01
- Normalized CD spectra ([1]; wavelength 239.50): -180445.52
- Normalized CD spectra ([1]; wavelength 240.00): -179664.78
- Normalized CD spectra ([1]; wavelength 240.50): -172296.10
- Normalized CD spectra ([1]; wavelength 241.00): -162102.32
- Normalized CD spectra ([1]; wavelength 241.50): -148455.67
- Normalized CD spectra ([1]; wavelength 242.00): -149233.62
- Normalized CD spectra ([1]; wavelength 242.50): -139443.53
- Normalized CD spectra ([1]; wavelength 243.00): -134411.20
- Normalized CD spectra ([1]; wavelength 243.50): -135270.09
- Normalized CD spectra ([1]; wavelength 244.00): -127740.28
- Normalized CD spectra ([1]; wavelength 244.50): -125334.77
- Normalized CD spectra ([1]; wavelength 245.00): -119297.62
- Normalized CD spectra ([1]; wavelength 245.50): -115863.12
- Normalized CD spectra ([1]; wavelength 246.00): -113285.78
- Normalized CD spectra ([1]; wavelength 246.50): -114529.09
- Normalized CD spectra ([1]; wavelength 247.00): -113972.59
- Normalized CD spectra ([1]; wavelength 247.50): -115521.93
- Normalized CD spectra ([1]; wavelength 248.00): -110033.91
- Normalized CD spectra ([1]; wavelength 248.50): -107626.80
- Normalized CD spectra ([1]; wavelength 249.00): -94087.61
- Normalized CD spectra ([1]; wavelength 249.50): -91943.44
- Normalized CD spectra ([1]; wavelength 250.00): -91987.89
- Normalized CD spectra ([1]; wavelength 250.50): -83982.51
- Normalized CD spectra ([1]; wavelength 251.00): -78786.13
- Normalized CD spectra ([1]; wavelength 251.50): -77492.66
- Normalized CD spectra ([1]; wavelength 252.00): -81506.91
- Normalized CD spectra ([1]; wavelength 252.50): -74477.64
- Normalized CD spectra ([1]; wavelength 253.00): -78503.70
- Normalized CD spectra ([1]; wavelength 253.50): -82822.05
- Normalized CD spectra ([1]; wavelength 254.00): -81558.46
- Normalized CD spectra ([1]; wavelength 254.50): -84392.86
- Normalized CD spectra ([1]; wavelength 255.00): -84114.71
- Normalized CD spectra ([1]; wavelength 255.50): -85462.25
- Normalized CD spectra ([1]; wavelength 256.00): -87106.95
- Normalized CD spectra ([1]; wavelength 256.50): -89048.81
- Normalized CD spectra ([1]; wavelength 257.00): -91287.84
- Normalized CD spectra ([1]; wavelength 257.50): -93824.03
- Normalized CD spectra ([1]; wavelength 258.00): -96657.38
